Source: patent publication US9783527B2, “Indazole ureas and method of use” (AbbVie Inc., priority 2014, dated 2017)

biological target: human Nav1.7 (Homo sapiens (Human), UniProt Q15858); test: FRET-based membrane potential assay, recombinant human sodium channel Nav1.7; assay type: cell-based; conditions: HEK293 cells stably expressing recombinant human Nav1.7; depolarization with veratridine (EC80) + scorpion venom
Summary of the method: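 IC50 derived by four-parameter Hill fit of percent inhibition of depolarization, measured as peak F440-480/F565-625 ratio over baseline. Stable human Nav1.7 HEK293 cells, dye-loaded with CC2-DMPE and DiSBAC2(3)/VABSC-1 at room temperature, received compound 3 min ahead of veratridine (EC80) plus scorpion venom.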

human Nav1.7, sequence (Q15858 whole entry): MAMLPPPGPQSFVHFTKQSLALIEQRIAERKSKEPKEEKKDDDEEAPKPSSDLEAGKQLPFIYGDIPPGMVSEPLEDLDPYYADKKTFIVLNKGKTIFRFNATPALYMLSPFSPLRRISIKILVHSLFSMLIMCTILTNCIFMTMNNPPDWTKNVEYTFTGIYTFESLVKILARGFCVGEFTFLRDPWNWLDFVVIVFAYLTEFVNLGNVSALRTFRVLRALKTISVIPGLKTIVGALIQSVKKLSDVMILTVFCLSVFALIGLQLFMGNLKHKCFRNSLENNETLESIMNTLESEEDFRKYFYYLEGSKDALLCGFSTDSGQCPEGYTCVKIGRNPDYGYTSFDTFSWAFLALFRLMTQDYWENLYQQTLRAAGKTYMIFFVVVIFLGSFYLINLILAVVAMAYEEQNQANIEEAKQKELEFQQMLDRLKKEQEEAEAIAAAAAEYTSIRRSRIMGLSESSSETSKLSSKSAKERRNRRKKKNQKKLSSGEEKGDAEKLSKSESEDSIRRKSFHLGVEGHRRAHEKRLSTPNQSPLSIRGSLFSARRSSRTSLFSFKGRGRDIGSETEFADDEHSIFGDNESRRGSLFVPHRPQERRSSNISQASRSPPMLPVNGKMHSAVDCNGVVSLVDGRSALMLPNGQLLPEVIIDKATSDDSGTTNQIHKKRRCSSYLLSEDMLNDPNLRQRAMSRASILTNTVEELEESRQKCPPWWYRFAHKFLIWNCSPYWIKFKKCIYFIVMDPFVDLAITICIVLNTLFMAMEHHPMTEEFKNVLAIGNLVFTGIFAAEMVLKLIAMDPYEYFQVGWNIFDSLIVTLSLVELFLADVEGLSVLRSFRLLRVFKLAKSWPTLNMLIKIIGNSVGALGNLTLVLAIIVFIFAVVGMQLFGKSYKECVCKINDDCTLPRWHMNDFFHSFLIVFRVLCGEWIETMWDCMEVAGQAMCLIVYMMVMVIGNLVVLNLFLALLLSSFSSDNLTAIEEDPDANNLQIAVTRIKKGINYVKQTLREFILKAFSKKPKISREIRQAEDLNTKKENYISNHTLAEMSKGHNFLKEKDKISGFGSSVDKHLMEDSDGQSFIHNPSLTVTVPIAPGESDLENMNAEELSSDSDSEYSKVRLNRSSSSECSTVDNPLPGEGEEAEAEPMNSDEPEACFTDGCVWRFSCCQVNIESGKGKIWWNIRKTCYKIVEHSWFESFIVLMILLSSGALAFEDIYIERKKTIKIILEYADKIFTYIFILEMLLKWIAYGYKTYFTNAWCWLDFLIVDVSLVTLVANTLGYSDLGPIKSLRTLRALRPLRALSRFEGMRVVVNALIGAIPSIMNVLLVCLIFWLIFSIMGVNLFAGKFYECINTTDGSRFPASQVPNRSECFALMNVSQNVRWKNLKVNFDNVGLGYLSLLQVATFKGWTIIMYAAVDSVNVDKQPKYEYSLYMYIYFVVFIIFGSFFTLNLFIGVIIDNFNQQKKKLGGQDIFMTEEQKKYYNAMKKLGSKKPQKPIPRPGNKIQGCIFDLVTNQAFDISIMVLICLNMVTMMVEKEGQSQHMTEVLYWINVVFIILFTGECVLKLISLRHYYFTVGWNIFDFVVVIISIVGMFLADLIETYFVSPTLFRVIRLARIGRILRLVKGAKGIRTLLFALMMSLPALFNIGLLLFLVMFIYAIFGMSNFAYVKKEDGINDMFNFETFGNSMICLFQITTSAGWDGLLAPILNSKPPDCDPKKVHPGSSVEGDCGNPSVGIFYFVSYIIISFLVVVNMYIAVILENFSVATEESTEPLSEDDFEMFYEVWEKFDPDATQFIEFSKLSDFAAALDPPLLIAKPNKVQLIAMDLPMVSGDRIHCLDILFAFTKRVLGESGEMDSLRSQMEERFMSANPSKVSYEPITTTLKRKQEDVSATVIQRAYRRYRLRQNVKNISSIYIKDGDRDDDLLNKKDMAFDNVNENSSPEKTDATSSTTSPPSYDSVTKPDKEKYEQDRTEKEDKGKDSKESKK

Compared with `CC(C)C[C@](C)(O)CN1CCN(c2cccc3c2cnn3-c2ccccc2F)C1=O` [Example 168, 1-[1-(2-fluorophenyl)-1H-indazol-4-yl]-3-[(2S)-2-hydroxy-2,4-dimethylpentyl]imidazolidin-2-one], `CC(C)C(C)(O)CN1CCN(c2cccc3c2cnn3-c2ccccc2F)C1=O` (stereo not drawn) [Example 180, 1-[1-(2-fluorophenyl)-1H-indazol-4-yl]-3-(2-hydroxy-2,3-dimethylbutyl)imidazolidin-2-one] is 4-fold higher in IC50: 816 nM for the first, 3230 nM for the second. The first is the more potent here.

First: O=C1N(CC(=O)N2CCC[C@H]2C(F)(F)F)CCN1c1cccc2c1cnn2-c1ccccc1F [Example 169, 1-[1-(2-fluorophenyl)-1H-indazol-4-yl]-3-{2-oxo-2-[(2S)-2-(trifluoromethyl)pyrrolidin-1-yl]ethyl}imidazolidin-2-one]
Second: O=C1N(CC(=O)N2CCC[C@@H]2C(F)(F)F)CCN1c1cccc2c1cnn2-c1ccccc1F [Example 171, 1-[1-(2-fluorophenyl)-1H-indazol-4-yl]-3-{2-oxo-2-[(2R)-2-(trifluoromethyl)pyrrolidin-1-yl]ethyl}imidazolidin-2-one]
The IC50 of the first is 3.8-fold higher: 1070 nM for the first, 285 nM for the second. The second is the more potent here.

Going from `COC[C@H]1CCCN1C(=O)CN1CCN(c2cccc3c2cnn3-c2ccccc2F)C1=O` [Example 170, 1-[1-(2-fluorophenyl)-1H-indazol-4-yl]-3-{2-[(2R)-2-(methoxymethyl)pyrrolidin-1-yl]-2-oxoethyl}imidazolidin-2-one] to `C[C@H]1CCCN1C(=O)CN1CCCN(c2cccc3c2cnn3-c2ccccc2F)C1=O` [Example 187, 1-[1-(2-fluorophenyl)-1H-indazol-4-yl]-3-{2-[(2S)-2-methylpyrrolidin-1-yl]-2-oxoethyl}tetrahydropyrimidin-2(1H)-one], the IC50 rises from 795 nM to 1910 nM (2.4-fold). The first is the more potent here.

`CC1(C)CCCN1C(=O)CN1CCN(c2cccc3c2cnn3-c2ccccc2F)C1=O` [Example 172, 1-[2-(2,2-dimethylpyrrolidin-1-yl)-2-oxoethyl]-3-[1-(2-fluorophenyl)-1H-indazol-4-yl]imidazolidin-2-one] and `O=C(CN1CCN(c2cccc3c2cnn3-c2ccccc2F)C1=O)C1CC1` [Example 183, 1-(2-cyclopropyl-2-oxoethyl)-3-[1-(2-fluorophenyl)-1H-indazol-4-yl]imidazolidin-2-one] are within 1.5-fold of each other in IC50: 2600 nM for the first, 2930 nM for the second.

`O=C(CN1CCN(c2cccc3c2cnn3-c2ccccc2F)C1=O)NCc1cccc(F)c1` [Example 173, N-(3-fluorobenzyl)-2-{3-[1-(2-fluorophenyl)-1H-indazol-4-yl]-2-oxoimidazolidin-1-yl}acetamide] and `O=C(CN1CCN(c2cccc3c2cnn3-c2ccccc2F)C1=O)NCc1cc(F)ccc1F` [Example 174, N-(2,5-difluorobenzyl)-2-{3-[1-(2-fluorophenyl)-1H-indazol-4-yl]-2-oxoimidazolidin-1-yl}acetamide] are within 1.5-fold of each other in IC50: 800 nM for the first, 849 nM for the second.

First: Cc1ccccc1CNC(=O)CN1CCN(c2cccc3c2cnn3-c2ccccc2F)C1=O [Example 175, 2-{3-[1-(2-fluorophenyl)-1H-indazol-4-yl]-2-oxoimidazolidin-1-yl}-N-(2-methylbenzyl)acetamide]
Second: C[C@@H](NC(=O)CN1CCN(c2cccc3c2cnn3-c2ccccc2F)C1=O)c1ccccc1 [Example 176, 2-{3-[1-(2-fluorophenyl)-1H-indazol-4-yl]-2-oxoimidazolidin-1-yl}-N-[(1R)-1-phenylethyl]acetamide]
The IC50 of the first is 2.7-fold higher: 2650 nM for the first, 983 nM for the second.

First: O=C(CN1CCN(c2cccc3c2cnn3-c2ccccc2F)C1=O)NCc1cc(F)cc(F)c1 [Example 177, N-(3,5-difluorobenzyl)-2-{3-[1-(2-fluorophenyl)-1H-indazol-4-yl]-2-oxoimidazolidin-1-yl}acetamide]
Second: C[C@H](NC(=O)CN1CCN(c2cccc3c2cnn3-c2ccccc2F)C1=O)c1ccccc1 [Example 178, 2-{3-[1-(2-fluorophenyl)-1H-indazol-4-yl]-2-oxoimidazolidin-1-yl}-N-[(1S)-1-phenylethyl]acetamide]
The IC50 of the first is 2.1-fold lower: 965 nM for the first, 2000 nM for the second. The first is the more potent here.

Going from `O=C1N(Cc2nc3ccccc3s2)CCN1c1cccc2c1cnn2-c1ccccc1F` [Example 179, 1-(1,3-benzothiazol-2-ylmethyl)-3-[1-(2-fluorophenyl)-1H-indazol-4-yl]imidazolidin-2-one] to `O=C1N(CCc2ccccc2)CCN1c1cccc2c1cnn2-c1ccccc1F` [Example 193, 1-[1-(2-fluorophenyl)-1H-indazol-4-yl]-3-(2-phenylethyl)imidazolidin-2-one], the IC50 falls from 15400 nM to 998 nM (15-fold). The second is the more potent here.

First: O=C1N(CC2CCCC2)CCN1c1cccc2c1cnn2-c1ccccc1F [Example 181, 1-(cyclopentylmethyl)-3-[1-(2-fluorophenyl)-1H-indazol-4-yl]imidazolidin-2-one]
Second: O=C1N(CC2CC2)CCN1c1cccc2c1cnn2-c1ccccc1F [Example 194, 1-(cyclopropylmethyl)-3-[1-(2-fluorophenyl)-1H-indazol-4-yl]imidazolidin-2-one]
The IC50 of the first is 10-fold higher: 6270 nM for the first, 613 nM for the second.

Going from `O=C1N(CC2CCCO2)CCN1c1cccc2c1cnn2-c1ccccc1F` (stereo not drawn) [Example 182, 1-[1-(2-fluorophenyl)-1H-indazol-4-yl]-3-(tetrahydrofuran-2-ylmethyl)imidazolidin-2-one] to `O=C1N(CC2CC2(F)F)CCN1c1cccc2c1cnn2-c1ccccc1F` (stereo not drawn) [Example 189, 1-[(2,2-difluorocyclopropyl)methyl]-3-[1-(2-fluorophenyl)-1H-indazol-4-yl]imidazolidin-2-one], the IC50 falls from 2620 nM to 1020 nM (2.6-fold). The second is the more potent here.

`O=C1N(c2cccc3c2cnn3-c2ccccc2F)CCN1C1CCC1` [Example 184, 1-cyclobutyl-3-[1-(2-fluorophenyl)-1H-indazol-4-yl]imidazolidin-2-one] and `O=C1N(c2ccc(C3CC3)o2)CCN1c1cccc2c1cnn2-c1ccccc1F` [Example 192, 1-(5-cyclopropyl-2-furyl)-3-[1-(2-fluorophenyl)-1H-indazol-4-yl]imidazolidin-2-one] are within 1.5-fold of each other in IC50: 1060 nM for the first, 1360 nM for the second.

`O=C1N(c2cccc3c2cnn3-c2ccccc2F)CCN1[C@H]1CO[C@@H](c2ccccc2F)C1` [Example 185, 1-[1-(2-fluorophenyl)-1H-indazol-4-yl]-3-[(3R,5R)-5-(2-fluorophenyl)tetrahydrofuran-3-yl]imidazolidin-2-one] and `O=C1N(c2cccc3c2cnn3-c2ccccc2F)CCN1c1cnn2cccnc12` [Example 190, 1-[1-(2-fluorophenyl)-1H-indazol-4-yl]-3-(pyrazolo[1,5-a]pyrimidin-3-yl)imidazolidin-2-one] are within 1.5-fold of each other in IC50: 965 nM for the first, 1090 nM for the second.

`CC(C)CC(O)CN1CCCN(c2cccc3c2cnn3-c2ccccc2F)C1=O` (stereo not drawn) [Example 186, 1-[1-(2-fluorophenyl)-1H-indazol-4-yl]-3-(2-hydroxy-4-methylpentyl)tetrahydropyrimidin-2(1H)-one] and `CC(C)CC(=O)CN1CCCN(c2cccc3c2cnn3-c2ccccc2F)C1=O` [Example 188, 1-[1-(2-fluorophenyl)-1H-indazol-4-yl]-3-(4-methyl-2-oxopentyl)tetrahydropyrimidin-2(1H)-one] are within 1.5-fold of each other in IC50: 1410 nM for the first, 1660 nM for the second.

With `Cn1cc2cc(N3CCN(c4cccc5c4cnn5-c4ccccc4F)C3=O)ccc2n1` [Example 191, 1-[1-(2-fluorophenyl)-1H-indazol-4-yl]-3-(2-methyl-2H-indazol-5-yl)imidazolidin-2-one] the IC50 was 2950 nM.
